Data as given in patent publication US8900880B2, “Viral citrullinated peptides and uses thereof” (Toscana Biomarkers S.R.L., priority 2009, dated 2014).
“Also recorded” adds a separate entry of the source. Read-outs that look alike come from different tables or passages of the source. Where no end group is shown, it is not given here. [ ]: non-standard residue; d: D form. Cit = NC(=O)NCCC[C@H](N)C(=O)O

Experiments:
[1] = system: IgG antibodies in RA and NHS sera; assay: ELISA with differently citrullinated EBNA-2(338-358) peptides (Example 6); type: binding, human; conditions: for NHS positive sera: 23 normal healthy subjects; for NHS positive sera / RA positive sera: positive = greater than 97.5th percentile of normal control group; for RA positive sera: 24 RA patients; for reactivity with RA sera (in words): 24 RA sera, relevant = more than 25% positive
Source text: The role of the number and of the position of citrullines inside EBNA-2(338-358) sequence in the detection of specific antibodies in RA sera was investigated by means of differently citrullinated peptides (Table 1).
It is believed that these two positions relate to two different antigenic regions.

[2] = system: anti-CP IgG antibodies in RA patients' serum; conditions: 100 RA patients; IgG; cut-off 97.5th percentile of normal controls
Method: The ability to recognize specific antibodies in RA patients by MAP of formula (V), in comparison with the MAP of formula (VI) was evaluated by ELISA.
MAP of formula (V) and MAP of formula (VI) were diluted respectively to a concentration of 20 μg/ml and 5 μg/ml in PBS, loaded into the wells of a polystyrene micro-titration plate (50 μl/well), and left overnight at +4° C. Upon completion of the coating period, the wells were treated for 1 hour at RT with 3% BSA in PBS. The patients' serum samples (diluted 1:200 in a buffer constituted by 1% BSA, 0.05% Tween X-100 in PBS) were then loaded onto the plate (50 μl/well) and left to incubate for 3 hours at RT. After the incubation period, one washing was performed with 1% PBS Tween X-100 and two washings were performed with PBS (150 μl/well). An anti human-IgG antibody conjugated to the enzyme alkaline phosphatase (50 μl/well), diluted 1:3000 in 1% PBS BSA, 0.05% Tween X-100, was incubated for 3 hours at RT with stirring. Upon completion of the incubation, after three washings as described above, p-nitrophenyl phosphate was added to the wells and the absorbance at a wavelength of 405 nm was determined. The results of the test were expressed as the percentage of positivity, calculated by dividing the absorbance of each serum sample by the absorbance of a positive serum sample the value of which was set arbitrarily at 100.
Serum samples of 100 patients suffering from RA were tested by this method.

[3] = system: autoantibodies in RA sera; assay: 79 RA patients tested for anti-CCP2, anti-CCP3, anti-VCP1 and anti-VCP2 (FIG. 1); type: binding, human
Source text: FIG. 1. […] The presence of different populations of autoantibodies is depicted in the block diagram. Number of RA sera positive (+) or negative (−) to anti-CCP2, anti-CCP3, anti-VCP1 [peptide of formula (VI)], and anti-VCP2 [peptide of formula (V)] are shown above the diagram.
Noteworthy, 7/79 (9%) anti-CCP2 and anti-CCP3 negative sera are positive to the peptide of formula (VI); 2/79 (3%) anti-CCP2 and anti-CCP3 negative sera are positive to peptide of formula (V); 1/79 (1%) anti-CCP2 and anti-CCP3 negative serum is positive to both peptides of formula (V) and formula (VI). Thus, formula (V) and (VI) allow to detect antibodies in a subgroup of anti-CCP negative RA patients (FIG. 1).

[4] = system: anti-VCP1 antibodies in RA and control sera; conditions: cited from earlier work
anti-SmD1 IgG antibodies = conditions: cited from earlier work
[5] = system: anti-VCP2 antibodies (IgG) from RA sera; assay: ELISA of affinity-purified anti-VCP2 antibodies from RA sera (Example 5); type: binding, human; conditions: four preparations from 4 different RA sera
Method: FIG. 4. Isolation of anti-VCP2 antibodies from RA sera was performed according to the method described in example 4.
A citrullinated peptide or MAP according to the present invention was conjugated to CNBr-activated sepharose according to standard procedures known by one skilled in the art. Total immunoglobulins from sera containing anti-CP antibodies were precipitated with 50% saturated ammonium sulfate; the precipitates were dissolved in phosphate buffer (pH 7.4) and dialyzed overnight against PBS. Enriched immunoglobulin preparations were applied to the column, and the flowthrough was collected for subsequent analysis. The column was extensively washed with 20 mM Na2HPO4, 150 mM NaCl (pH 7.2), and the antibodies bound to the column were eluted by 0.1 M glycine buffer (pH 2.8) (0.5 ml/fraction), immediately neutralized with 50 μl Tris 1M (pH 8.0), and dialyzed overnight against PBS. The anti-CP antibody content in the eluates and flowthrough was tested by ELISA.

[6] = WO2004087747, MAP as coating antigen

## GQSRGQSCitGRGCitGCitGRGRGKG (GQSRGQS[Cit]GRG[Cit]G[Cit]GRGRGKG)
[1]
  NHS positive sera: 1/23
  RA positive sera: 8/24

## GQSRGQSRGCitGRGCitGRGRGKG (GQSRGQSRG[Cit]GRG[Cit]GRGRGKG; not fully specified) [[Cit^347, Cit^349]EBNA2(338-358)]
[1]
  NHS positive sera: 1/23
  RA positive sera: 5/24

## GQSRGQSCitGRGRGCitGRGRGKG (GQSRGQS[Cit]GRGRG[Cit]GRGRGKG) [[Cit^345, Cit^351]EBNA2(338-358)]
[1]
  NHS positive sera: 1/23
  RA positive sera: 12/24

## GQSRGQSCitGRGCitGRGCitGRGKG (GQSRGQS[Cit]GRG[Cit]GRG[Cit]GRGKG)
[1]
  NHS positive sera: 1/23
  RA positive sera: 10/24

## GQSCitGQSRGRGRGCitGRGRGKG (GQS[Cit]GQSRGRGRG[Cit]GRGRGKG; not fully specified) [[Cit^341, Cit^349]EBNA2(338-358)]
[1]
  NHS positive sera: 0/23
  RA positive sera: 6/24

## (G G D N H G Cit G Cit G Cit G Cit G Cit G G G Cit P G A P G)4 K2 K beta-Alanine [VCP1]
[2]
  anti-CP MAP antibodies found in the RA cohort: 47%
[3]; comparison of MAP of formula (V) and MAP of formula (VI)
  RA sera containing antibodies reacting with either one of the two MAP: 15%
[3]; of 79 RA patients
  anti-CCP2 and anti-CCP3 negative sera positive to the peptide: 9%
[3]; of 79 RA patients (1/79)
  anti-CCP2 and anti-CCP3 negative serum positive to both peptides: 1%
[3]; population of 79 RA patients
  positive RA sera: 62%
[4]; Anzilotti et al. 2006, 300 RA patients
  anti-VCP1 antibodies found in RA sera: 45%
[4]; Anzilotti et al. 2006, 327 controls
  anti-VCP1 antibodies found in controls: less than 5%
[4]; Pratesi et al. 2006
  antibodies detected in RA sera: 50%
  antibodies detected in normal and disease control sera: less than 5%
[4]; [6]
  antibodies detected in RA sera: 45%
  specificity: 95%

## GQSRGQSCitGRGRGRGRGCitGKG (GQSRGQS[Cit]GRGRGRGRG[Cit]GKG) [[Cit^345, Cit^355]EBNA2(338-358)]
[1]
  NHS positive sera: 0/23
  RA positive sera: 11/24

## GQSCitGQSCitGRGCitGRGRGRGKG (GQS[Cit]GQS[Cit]GRG[Cit]GRGRGRGKG)
[1]
  NHS positive sera: 1/23
  RA positive sera: 12/24
  reactivity with RA sera (in words): most active peptide in this series

## GQSRGQSRGRGCitGCitGRGRGKG (GQSRGQSRGRG[Cit]G[Cit]GRGRGKG) [[Cit^349, Cit^351]EBNA2(338-358)]
[1]
  NHS positive sera: 2/23
  RA positive sera: 15/24
  reactivity with RA sera (in words): very active
[1]; RA versus NHS sera
  specificity and selectivity (in words): less specific and selective

## EBNA-2(354-373): non deiminated sequence EBNA2(354-373) of Incaprera et al.
anti-SmD1 IgG antibodies; Incaprera et al. 1998
  IgG detection in IM and SLE sera: detection of IgGs
anti-SmD1 IgG antibodies; systemic lupus erythematosus autoimmunity
  antibody recognition: recognizes anti-SmD1 IgG antibodies

## GQSRGQSRGRGRGRGRGRGKG [EBNA2(338-358), reference compound]
[5]
  reactivity of purified anti-VCP2 IgG with the antigen: no binding
[1]
  NHS positive sera: 0/23
  RA positive sera: 3/24
  reactivity with RA sera (in words): does not react with RA sera; also recorded: does not recognize IgG antibodies in a relevant number of RA sera

## GQSRGQSRGRGRGRGRGCitGKG (GQSRGQSRGRGRGRGRG[Cit]GKG) [[Cit^355]EBNA2(338-358)]
[1]
  NHS positive sera: 2/23
  RA positive sera: 3/24

## GQSRGQSRGRGRGCitGRGCitGKG (GQSRGQSRGRGRG[Cit]GRG[Cit]GKG; not fully specified) [[Cit^349, Cit^355]EBNA2(338-358)]
[1]
  NHS positive sera: 0/23
  RA positive sera: 9/24

## GQSRGQSRGRGRGRGCitGRGKG (GQSRGQSRGRGRGRG[Cit]GRGKG) [[Cit^353]EBNA2(338-358)]
[1]
  NHS positive sera: 0/23
  RA positive sera: 6/24

## GQSRGQSRGRGCitGRGRGRGKG (GQSRGQSRGRG[Cit]GRGRGRGKG) [[Cit^349]EBNA2(338-358)]
[1]
  NHS positive sera: 1/23
  RA positive sera: 9/24

## GQSRGQSCitGRGRGRGCitGRGKG (GQSRGQS[Cit]GRGRGRG[Cit]GRGKG) [[Cit^345, Cit^353]EBNA2(338-358)]
[1]
  NHS positive sera: 2/23
  RA positive sera: 6/24

## GQSRGQSCitGRGCitGRGRGRGKG (GQSRGQS[Cit]GRG[Cit]GRGRGRGKG) [[Cit^345, Cit^349]EBNA2(338-358)]
[1]
  NHS positive sera: 0/23
  RA positive sera: 15/24
  reactivity with RA sera (in words): most active and selective di-citrullinated peptide

## GQSRGQSCitGRGRGRGRGRGKG (GQSRGQS[Cit]GRGRGRGRGRGKG) [[Cit^345]EBNA2(338-358)]
[1]
  NHS positive sera: 1/23
  RA positive sera: 9/24

## GQSRGQSCitGCitGRGRGRGRGKG (GQSRGQS[Cit]G[Cit]GRGRGRGRGKG) [[Cit^345, Cit^347]EBNA2(338-358)]
[1]
  NHS positive sera: 1/23
  RA positive sera: 10/24

## GQSRGQSRGCitGRGRGRGRGKG (GQSRGQSRG[Cit]GRGRGRGRGKG) [[Cit^347]EBNA2(338-358)]
[1]
  NHS positive sera: 1/23
  RA positive sera: 6/24

## GQSRGQSCitGRGCitGRGRGCitGKG (GQSRGQS[Cit]GRG[Cit]GRGRG[Cit]GKG)
[1]
  NHS positive sera: 0/23
  RA positive sera: 8/24

## GQSCitGQSRGRGRGRGRGCitGKG (GQS[Cit]GQSRGRGRGRGRG[Cit]GKG) [[Cit^341, Cit^355]EBNA2(338-358)]
[1]
  NHS positive sera: 1/23
  RA positive sera: 8/24

## GQSRGQSRGRGRGCitGCitGRGKG (GQSRGQSRGRGRG[Cit]G[Cit]GRGKG; not fully specified) [[Cit^349, Cit^353]EBNA2(338-358)]
[1]
  NHS positive sera: 0/23
  RA positive sera: 12/24

## GQSCitGQSRGRGRGRGRGRGKG (GQS[Cit]GQSRGRGRGRGRGRGKG) [[Cit^341]EBNA2(338-358)]
[1]
  NHS positive sera: 1/23
  RA positive sera: 4/24

## GQSCitGQSCitGRGRGRGRGRGKG (GQS[Cit]GQS[Cit]GRGRGRGRGRGKG) [[Cit^341, Cit^345]EBNA2(338-358)]
[1]
  NHS positive sera: 0/23
  RA positive sera: 12/24

## GQSRGQSCitGCitGCitGRGRGRGKG (GQSRGQS[Cit]G[Cit]G[Cit]GRGRGRGKG) [[Cit345, Cit^347, Cit^349]EBNA2(338-358)]
[1]
  NHS positive sera: 1/23
  RA positive sera: 9/24

## GQSRGQSRGRGRGCitGRGRGKG (GQSRGQSRGRGRG[Cit]GRGRGKG) [[Cit^351]EBNA2(338-358)]
[1]
  NHS positive sera: 1/23
  RA positive sera: 6/24
